The record followed here is patent US5316767A, “Whitening cosmetic composition” (priority 1990, dated 1994).

≈ marks a conversion by molar mass, not a printed value. Numbered stars: 1 amine (or outer) side, 2 acyl side, 3 side chain; on linkers, the order of the positions; unused ones are H or OH. Bridge positions count the residues as written; N and C are the ends. Square brackets hold non-standard residues; d marks the D form. Peptide text beside a SMILES is read from it. I, II: the chains in the order shown. γGlu = O=C(O)[C@H](CCC(=O)[*:2])N[*:1]

The test system of data set [1] is B16-C melanoma cells. Description: Melanin formation inhibitory activity in B16-C melanoma cells (Experiment 2). Format: cell-based, mouse. The procedure: After 2 ml of MEM medium (manufactured by Nissui Pharmaceutical Co.) (serum concentration of 5%) was added in a 6-well culture plate, mouse-derived B16-C melanoma cells were plated at 2×10^5 cells/well and test compounds were then separately added. B16-C melanoma cells were cultured at 37° C. in 5% CO2 incubator. On Day 3 and Day 5, the medium was exchanged and at the same time, the test compounds were separately added. On Day 7, the medium was removed. The cells were trypsinized and resuspended in PBS and pelleted by centrifugation. […] The protein content in the cells and the amount of melanin formed were determined, whereby the amount of melanin formed (μg) per protein content (mg) were calculated. The protein content and the amount of melanin formed were quantitatively determined by the method of Bradford et al. [Analytical Biochemistry, 72, 248-254 (1976)] and by measuring absorbance of the test solution at 470 nm [Cancer Research, 45, 1474-1478 (1985)], respectively.

A short description of data set [2]: physchem. As to conditions: pH 6.5.
Data set [3] is described as follows: physchem. To be noted: pH 6.5. The source holds these as a separate data set.
Data set [4] can be described thus: physchem. To be noted: water.
Data set [5] is described as follows: Water solubility.
Data set [6] in a line: Heat stability: residual rate after heating at 100° C. for 20 minutes. To be noted: pH 6.5.
Data set [7] is described as follows: Storage stability: residual rate after allowing to stand at 40° C. for 30 days.
[8] abbreviates: 0.25 mM, first series (nothing added: 211.4 ± 11.45).
Setting [9] is: 0.5 mM, first series (nothing added: 211.4 ± 11.45).
The mark [10] stands for this setting: 1.0 mM, first series (nothing added: 211.4 ± 11.45).

Broadly, the amount remaining is what is left of the initial amount, in per cent. Broadly, the solubility is the dissolved amount per volume that the medium holds. Low values mean little dissolved substance, high ones much dissolved substance. Turning to `OC[C@H]1O[C@@H](Oc2ccc(O)cc2)[C@H](O)[C@@H](O)[C@@H]1O` [Arbutin], the “Melanin Content/Protein Content” value in data set [1] (setting [8]) is 108.7 ± 13.04 µg/mg; in data set [1] (setting [9]) it was 89.2 ± 13.48 µg/mg; in data set [1] (setting [10]), “growth inhibition”. The molecule further registered a share remaining at 20 min, 10000 µM in data set [2] of 100%. The same molecule registered a share remaining at 720 h, 10000 µM in data set [3] of 100%. In addition, the solubility in data set [4] was 142 mg/mL (≈ 520 mM).
Turning to `N[C@@H](CCC(=O)N[C@@H](CS)C(=O)NCC(=O)O)C(=O)O` [Glutathione, γ-L-glutamyl-L-cysteinyl-glycine], in data set [2], the amount remaining at 20 min, 10000 µM was found to be 70%. The molecule also showed a fraction remaining at 720 h, 10000 µM in data set [3] of 0%.
Consider `O=c1cc(CO)occ1O` [Kojic acid], for which the “Melanin Content/Protein Content” value in data set [1] (setting [8]) stood at 233.7 ± 14.37 µg/mg; in data set [1] (setting [9]), 202.4 ± 11.49 µg/mg; in data set [1] (setting [10]), 188.6 ± 9.93 µg/mg. Also, the “Activity for inhibiting melanin formation as compared with γ-L-glutamyl-L-cysteine disulfide and oxidized glutathione” value in data set [1] (Table 3) is recorded as “poorer”. Also, the concentration in solution in data set [5] (solubility) was 48.3 mg/mL (≈ 340 mM). Also, the fraction remaining at 20 min, 10000 µM in data set [6] is 100%. For the same molecule, the Coloration result in data set [7] (40° C., 30 days, pH 6.5, 10 mM) is given as “colored”. The fraction remaining at 720 h, 10000 µM in data set [7] (pH 6.5) is 100%.
In the case of `CC(=O)N[C@@H](CCC(=O)N[C@@H](CSSC[C@H](NC(=O)CC[C@H](NC(C)=O)C(=O)O)C(=O)NCC(=O)O)C(=O)NCC(=O)O)C(=O)O` [N,N'-diacetyl-oxidized glutathione, N,N'-diacetyl oxidized glutathione] (I: Ac-[γGlu]-Cys-Gly-OH / II: Ac-[γGlu]-Cys-Gly-OH; disulfide I:2-II:2), the “Melanin Content/Protein Content” value in data set [1] (1.0 mM, second series (nothing added: 330.1 ± 22.5)) amounted to 221.4 ± 18.6 µg/mg; in data set [1] (2.0 mM, second series (nothing added: 330.1 ± 22.5)), 198.1 ± 8.5 µg/mg. The “Inhibition of melanin formation in B16-C melanoma cells” value in data set [1] (Table 3) is “significantly inhibiting melanin formation”. This molecule yielded a fraction remaining at 20 min, 10000 µM in data set [2] of 100%. In data set [3], this molecule came in with a fraction remaining at 720 h, 10000 µM of 100%. In data set [4], the solubility is greater than 200 mg/mL.
As to `N[C@@H](CCC(=O)N[C@@H](CSSC[C@H](NC(=O)CC[C@H](N)C(=O)O)C(=O)O)C(=O)O)C(=O)O` [γ-L-glutamyl-L-cysteine disulfide], the “Melanin Content/Protein Content” value is 189.3 ± 10.56 µg/mg in data set [1] (setting [9]); 155.6 ± 7.68 µg/mg in data set [1] (setting [10]); 154.7 ± 12.16 µg/mg in data set [1] (2.0 mM, first series (nothing added: 211.4 ± 11.45)). Moreover, in data set [1] (Table 3), the “Inhibition of melanin formation in B16-C melanoma cells” value is recorded as “significantly inhibiting melanin formation”. The same molecule came in with a fraction remaining at 20 min, 10000 µM in data set [2] of 100%. The molecule also yielded a fraction remaining at 720 h, 10000 µM in data set [3] of 100%. In data set [4], this molecule showed a solubility greater than 554 mg/mL.
In data set [2], `N[C@@H](CCC(=O)N[C@@H](CSSC[C@H](N)C(=O)O)C(=O)O)C(=O)O` [γ-L-glutamyl-L-cystine] yielded an amount remaining at 20 min, 10000 µM of 100%. The share remaining at 720 h, 10000 µM in data set [3] worked out at 100%. Besides, in data set [4], the solubility was greater than 742 mg/mL.
